The subject of assay [1] is Rattus norvegicus. Kind of assay: Antiosteoporotic activity in ovariectomized Sprague-Dawley rat assessed as trabecular thickness at 10 ug/kg, po qd at 18th week by micro-CT analysis (reference value: 0.103 +/- 0.0044 millimeter). Format: functional, Trabecula.
In assay [2] the test system is Rattus norvegicus. Kind of assay: Antiosteoporotic activity in ovariectomized Sprague-Dawley rat assessed as bone volume /tissue volume at 10 ug/kg, po qd at 12th week by micro-CT analysis (reference value: 31.61 +/- 2.39%). Format: functional.
The target of assay [3] is T1, Estrogen receptor (Homo sapiens) (UniProt P03372).
T1 sequence (whole entry): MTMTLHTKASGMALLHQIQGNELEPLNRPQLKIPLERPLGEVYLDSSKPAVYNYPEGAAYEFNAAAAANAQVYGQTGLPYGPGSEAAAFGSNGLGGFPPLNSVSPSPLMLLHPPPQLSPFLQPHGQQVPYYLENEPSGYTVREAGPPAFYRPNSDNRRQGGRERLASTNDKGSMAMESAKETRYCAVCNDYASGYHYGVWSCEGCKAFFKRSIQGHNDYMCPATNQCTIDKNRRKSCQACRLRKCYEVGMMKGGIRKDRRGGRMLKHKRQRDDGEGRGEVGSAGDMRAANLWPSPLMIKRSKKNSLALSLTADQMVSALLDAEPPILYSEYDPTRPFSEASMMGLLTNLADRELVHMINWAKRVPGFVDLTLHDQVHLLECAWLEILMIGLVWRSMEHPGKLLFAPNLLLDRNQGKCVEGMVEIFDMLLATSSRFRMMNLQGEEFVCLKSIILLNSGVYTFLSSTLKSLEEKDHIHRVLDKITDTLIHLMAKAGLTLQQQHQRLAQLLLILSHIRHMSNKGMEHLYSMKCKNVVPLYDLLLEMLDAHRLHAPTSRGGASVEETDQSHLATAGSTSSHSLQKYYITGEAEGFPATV
Kind of assay: Antagonist activity at ERalpha (301 to 553 amino acid residues) (unknown origin) assessed as inhibition of E2 induced interaction with SRC1 after 24 hrs by yeast-two-hybrid assay. More on the design: concentration or dose not given beside the values.

In the next assay the target is Estrogen receptor beta (Homo sapiens, UniProt Q92731). Kind of assay: Agonist activity at ERbeta (248 to 510 amino acid residues) (unknown origin) assessed as induction of interaction with SRC1 after 24 hrs by yeast two-hybrid assay.
Estrogen receptor beta, sequence (Q92731 whole entry, the tested form may be a part): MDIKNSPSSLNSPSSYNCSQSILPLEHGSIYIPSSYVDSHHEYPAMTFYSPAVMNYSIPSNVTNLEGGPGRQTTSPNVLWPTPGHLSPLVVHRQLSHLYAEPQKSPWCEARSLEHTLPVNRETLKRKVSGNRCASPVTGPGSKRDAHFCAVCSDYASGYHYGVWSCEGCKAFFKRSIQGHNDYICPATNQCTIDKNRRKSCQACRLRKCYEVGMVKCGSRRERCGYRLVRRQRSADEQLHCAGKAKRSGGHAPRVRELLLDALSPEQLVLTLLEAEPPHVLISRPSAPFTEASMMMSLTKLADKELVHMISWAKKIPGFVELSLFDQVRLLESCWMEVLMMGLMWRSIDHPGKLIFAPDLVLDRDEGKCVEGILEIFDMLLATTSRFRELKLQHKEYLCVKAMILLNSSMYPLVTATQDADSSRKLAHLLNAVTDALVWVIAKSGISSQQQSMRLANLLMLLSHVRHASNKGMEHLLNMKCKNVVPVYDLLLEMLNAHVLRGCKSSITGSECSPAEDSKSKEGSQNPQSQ
The subject of assay [4] is Rattus norvegicus. Kind of assay: Antiosteoporotic activity in ovariectomized Sprague-Dawley rat assessed as trabecular separation at 1 ug/kg, po qd at 12th week by micro-CT analysis (reference value: 0.146 +/- 0.010 millimeter). Format: functional, Trabecula.
In assay [5] the test system is Rattus norvegicus. Kind of assay: Antiosteoporotic activity in ovariectomized Sprague-Dawley rat assessed as serum osteocalcin level at 10 ug/kg, po qd at 12th week by enzyme immunoassay (reference value: 1055.8 +/- 14 ng/ml). Format: functional.
The subject of assay [6] is Rattus norvegicus. Kind of assay: Antiosteoporotic activity in ovariectomized Sprague-Dawley rat assessed as serum osteocalcin level at 3 ug/kg, po qd at 12th week by enzyme immunoassay (reference value: 1055.8 +/- 14 ng/ml). Format: functional.
The test system of assay [7] is Rattus norvegicus. Kind of assay: Antiosteoporotic activity in ovariectomized Sprague-Dawley rat assessed as bone volume /tissue volume at 10 ug/kg, po qd at 18th week by micro-CT analysis (reference value: 27.36 +/- 1.99%). Format: functional.
Assay [8] has as its system Rattus norvegicus. Kind of assay: Antiosteoporotic activity in ovariectomized Sprague-Dawley rat assessed as serum osteocalcin level at 1 ug/kg, po qd at 12th week by enzyme immunoassay (reference value: 1055.8 +/- 14 ng/ml). Format: functional.
In assay [9] the test system is Rattus norvegicus. Kind of assay: Antiosteoporotic activity in ovariectomized Sprague-Dawley rat assessed as bone volume /tissue volume at 1 ug/kg, po qd at 18th week by micro-CT analysis (reference value: 27.36 +/- 1.99%). Format: functional.
For assay [10], the system named is Rattus norvegicus. Kind of assay: Antiosteoporotic activity in ovariectomized Sprague-Dawley rat assessed as trabecular thickness at 10 ug/kg, po qd at 6th week by micro-CT analysis (reference value: 0.086 +/- 0.0069 millimeter). Format: functional, Trabecula.
Assay [11] concerns Rattus norvegicus. Kind of assay: Antiosteoporotic activity in ovariectomized Sprague-Dawley rat assessed as trabecular separation at 10 ug/kg, po qd at 12th week by micro-CT analysis (reference value: 0.146 +/- 0.010 millimeter). Format: functional, Trabecula.
For assay [12], the system named is Rattus norvegicus. Kind of assay: Antiosteoporotic activity in ovariectomized Sprague-Dawley rat assessed as trabecular thickness at 1 ug/kg, po qd at 6th week by micro-CT analysis (reference value: 0.086 +/- 0.0069 millimeter). Format: functional, Trabecula.

Each structure is given as a SMILES string.

The term EC50 denotes the concentration that produces a half-maximal response. Regarding `O=C1c2cc(O)cc(O)c2[C@@H](c2ccc(O)cc2)[C@@H]1c1cc(O)cc(O)c1` [ISOPAUCIFLORAL F], the Activity in the assay on Rattus norvegicus [1] amounted to 0.212 mm; in the assay with Rattus norvegicus [2], 38.43%; in [3], 9.45%; in the assay on Rattus norvegicus [4], 0.18 mm; in the assay with Rattus norvegicus [5], 1156.07 ng/mL; in the assay with Rattus norvegicus [6] it was 1109.6 ng/mL. For the same molecule, the Activity is 66.42% in the assay with Rattus norvegicus [7]; 1172.9 ng/mL in the assay with Rattus norvegicus [8]; 35.56% in the assay with Rattus norvegicus [9]; 0.082 mm in the assay with Rattus norvegicus [10]; 0.138 mm in the assay on Rattus norvegicus [11]; 0.083 mm with Rattus norvegicus [12]. The half-maximal effective concentration (EC50) on Estrogen receptor beta was found to be 47 µM.

The values above are taken from ChEMBL document CHEMBL3616426 (Eur J Med Chem, 2015).
